Patent US20230247992A1, “ARTHROPOD CONTROL COMPOSITION” (Firmenich SA, priority 2020, published 2023)

How the values were obtained:
Aedes aegypti [1] = experiment: in vitro Warm Body assay, substance applied on glass Petri dish on top of the warm body (deterrence and repellence); format: in vivo
Procedure: (§1) The controlling effect, repellence & spatial repellence, according to the present invention is determined by testing the Warm Body assay against the yellow fever mosquito, Aedes aegypti Rockefeller strain. […] Observations of controlling efficacy were made on host-seeking females of uniform age, 5 to 10 days old selected as mentioned in the publication mentioned hereinabove. Tested hungry females had access to 10% sugar solution but were not blood-fed. Further information is provided in the accompanying examples.
(§2) The published protocol has been adapted in not manually counting the landing mosquitoes but automatically using an automatic counting software, the switch from Anopheles gambiae to A. aegypti led to a decrease of mosquitoes’ number placed in the tested cage due to the size difference (i.e. 30 mosquitoes instead of 50) and to an increase of lighting as A. aegypti is a diurnal mosquitoes (i.e. 150 lux instead of 4 lux). Further information is provided in the accompanying examples.,
(§3) The controlling effect of the compositions according to the present invention was assessed using an adapted Warm Body assay as defined in Kröber T, Kessler S, Frei J, Bourquin M, Guerin PM. 2010. An in vitro assay for testing mosquito controlling compounds employing a warm body and carbon dioxide as a behavioral activator. J Am Mosq Control Assoc. 26:381-386. In this in-vitro assay the number of mosquito landing on a warm body, simulating an attractive host treated with the tested stimuli, was measured in order to assess the repellence effect.
as §2, with “to Aedes” for “to A.”, “lux).” for “lux). Further information is provided in the accompanying examples.,”
(§4) In addition, since the inventors were interested by assessing spatial repellence added or not to a deterrent effect, the substance was applied using two different technics. Whether, as in Kröber et al. (2010), both deterrent and repellent effect were investigated (i.e. similar effect than most body care applications such as lotion) and the substances was applied on a sandblasted glass Petri dish placed on top of the warm body. Whether only the spatial repellence was investigated (i.e. similar effect than most home care applications such as liquid electric dispenser) and the substance was introduced in the cage space thanks to a forced evaporation system as described in Chappuis C J-F, Niclass Y, Vuilleumier C, Starkenmann C. 2015. Quantitative Headspace Analysis of Selected Odorants from Latrines in Africa and India. Environ. Sci. Technol. 49:6134-6140.
(§5) As stated in Kröber et al. (2010), selected 10-12 days old hungry females, that had ad libitum access to 10% sugar solution but were not blood-fed, were selected for the assay.
On the sandblasted glass Petri dish covering the warm body (28.3 cm^2), 100 µL of the substances diluted at different concentrations in ethanol was applied. The number of mosquito landing on the warm body was counted for each stimuli, N,N-diethyl-3-methylbenzamide (DEET) and ethyl 3-[acetyl(butyl)amino]propanoate (IR3535) being used as benchmarks and pure ethanol as control.

Aedes aegypti [2] = experiment: in vivo Arm-in-cage assay on human volunteers; details: for decrease of the percentage of mosquito landing on the arm: 20% applied on arm skin (600 cm^2), three volunteers
Procedure: The controlling effect, repellence & spatial repellence, according to the present invention is also determined according to an arm in the box method adapted from the WHO Guidelines for efficacy testing of mosquito repellents for human skin (WHO/CDS/NTD/WHOPES/2009.4). […] Further information is provided in the accompanying examples.
The Arm in the box method was adapted from the WHO Guidelines for efficacy testing of mosquito repellents for human skin (WHO/CDS/NTD/WHOPES/2009.4). The readiness of 100 hungry female mosquitoes A. aegypti to probe is assessed by inserting an untreated arm into the cage (40×40×40 cm) for 30 seconds (negative control) three times (once at the beginning, once at the fourth hour and once at the eighth hour), to determine probing activity. Then, the product is applied onto the skin of the forearm of a human volunteer (1 mL per 600 cm^2) and after 5 minutes, this arm is inserted into the cage and exposed for 3 minutes. The assay take place in temperature (27±2° C.) and humidity (80±10%RH) regulated room on three different volunteers.
Arm-in-cage test is a compulsory assay for most biocide registrations to assess the efficacy of a substance. It is a very challenging test as the treated arm of a volunteer is being placed in a space containing a density of […] blood hungry mosquitoes / m^3 of air.

Ixodes ricinus = experiment: whole plant or invertebrate; format: in vivo; details: for pest or weed control at 1 µg/cm2, 1 µg/cm2 / pest or weed control at 5 µg/cm2, 5 µg/cm2 / pest or weed control at 25 µg/cm2, 25 µg/cm2: Ixodes ricinus, read-out: mean percentage of ticks affected
Aedes aegypti [3] = experiment: in vitro Warm Body assay, substance introduced in the cage air by forced evaporation (spatial repellence); format: in vivo
Procedure: as §1, §2, §3
as §2, with “to Aedes” for “to A.”, “lux).” for “lux). Further information is provided in the accompanying examples.,”
as §4, §5
The forced evaporation system allows to fill the volume of the cage with stimuli tested, (2-methyl-4-oxo-3-prop-2-ynylcyclopent-2-en-1-yl) 2,2-dimethyl-3-(2-methylprop-1-enyl)cyclopropane-1-carboxylate (prallethrin) and N,N-diethyl-3-methylbenzamide (DEET) being used as benchmarks. In order to limit potential dead volumes in the cage, five flushes of the cage were made before starting the 2 minutes test during which the number of mosquito landings was counted.

[4] = 0.04% in ethanol, ethanol control 59.3±6.9 landings
[5] = 1% in ethanol, ethanol control 59.3±6.9 landings
[6] = […] in ethanol, ethanol control 59.3±6.9 landings
[7] = 0.0017 µg/L air, without substance 54.7±3.2
[8] = 0.017 µg/L air, without substance 54.7±3.2
[9] = 0.17 µg/L air, without substance 54.7±3.2
[10] = 1.7 µg/L air, without substance 54.7±3.2
[11] = 17 µg/L air, without substance 54.7±3.2

COc1cc(C=O)ccc1O [4-hydroxy-3-methoxybenzaldehyde]
number of mosquitoes landing within 2 minutes on the warm body (Aedes aegypti [1]; [4]): 9.0
number of mosquitoes landing within 2 minutes on the warm body (Aedes aegypti [1]; [5]): 3.0
number of mosquitoes landing within 2 minutes on the warm body (Aedes aegypti [1]; [6]): 19.0
decrease of the percentage of mosquito landing on the arm (Aedes aegypti [2]; 5 min post-application): 82±5.2%
decrease of the percentage of mosquito landing on the arm (Aedes aegypti [2]; 1 h post-application): 78±2.6%
decrease of the percentage of mosquito landing on the arm (Aedes aegypti [2]; 2 h post-application): 66±8.0%
decrease of the percentage of mosquito landing on the arm (Aedes aegypti [2]; 3 h post-application): 61±6%
decrease of the percentage of mosquito landing on the arm (Aedes aegypti [2]; 4 h post-application): 63±2%
pest or weed control at 1 µg/cm2, 1 µg/cm2 (Ixodes ricinus): 14%
pest or weed control at 5 µg/cm2, 5 µg/cm2 (Ixodes ricinus): 44%
pest or weed control at 25 µg/cm2, 25 µg/cm2 (Ixodes ricinus): 73%
number of mosquitoes landing within 2 minutes on the warm body, air in the cage saturated with stimulus (Aedes aegypti [3]; [7]): 17.0
number of mosquitoes landing within 2 minutes on the warm body, air in the cage saturated with stimulus (Aedes aegypti [3]; [8]): 9.0
number of mosquitoes landing within 2 minutes on the warm body, air in the cage saturated with stimulus (Aedes aegypti [3]; [9]): 1.5
number of mosquitoes landing within 2 minutes on the warm body, air in the cage saturated with stimulus (Aedes aegypti [3]; [10]): 3.5
number of mosquitoes landing within 2 minutes on the warm body, air in the cage saturated with stimulus (Aedes aegypti [3]; [11]): 1.0

CCCCCC1CCCC(=O)O1 (stereo not shown) [6-pentyloxan-2-one]
number of mosquitoes landing within 2 minutes on the warm body (Aedes aegypti [1]; 0.04% in ethanol, ethanol control 67.0±8.8 landings): 7.0
number of mosquitoes landing within 2 minutes on the warm body (Aedes aegypti [1]; 1% in ethanol, ethanol control 67.0±8.8 landings): 2.0
number of mosquitoes landing within 2 minutes on the warm body (Aedes aegypti [1]; […] in ethanol, ethanol control 67.0±8.8 landings): 90.0
repellence in the arm-in-cage test (Aedes aegypti [2]; maintained for more than 4h (FIG. 3)): above 75%
number of mosquitoes landing within 2 minutes on the warm body, air in the cage saturated with stimulus (Aedes aegypti [3]; 0.0017 µg/L air, without substance 54.1±4.9): 43.0
number of mosquitoes landing within 2 minutes on the warm body, air in the cage saturated with stimulus (Aedes aegypti [3]; 0.017 µg/L air, without substance 54.1±4.9): 4.0
number of mosquitoes landing within 2 minutes on the warm body, air in the cage saturated with stimulus (Aedes aegypti [3]; 0.17 µg/L air, without substance 54.1±4.9): 28.0
number of mosquitoes landing within 2 minutes on the warm body, air in the cage saturated with stimulus (Aedes aegypti [3]; 1.7 µg/L air, without substance 54.1±4.9): 0.5
number of mosquitoes landing within 2 minutes on the warm body, air in the cage saturated with stimulus (Aedes aegypti [3]; 17 µg/L air, without substance 54.1±4.9): 0.0

C=C(C)[C@@H]1CC=C(C)C(=O)C1 [(5R)-2-methyl-5-prop-1-en-2-ylcyclohex-2-en-1-one]
number of mosquitoes landing within 2 minutes on the warm body (Aedes aegypti [1]; [4]): 16.0
number of mosquitoes landing within 2 minutes on the warm body (Aedes aegypti [1]; [5]): 3.0
number of mosquitoes landing within 2 minutes on the warm body (Aedes aegypti [1]; [6]): 24.0
pest or weed control at 1 µg/cm2, 1 µg/cm2 (Ixodes ricinus): 50%
pest or weed control at 5 µg/cm2, 5 µg/cm2 (Ixodes ricinus): 17%
pest or weed control at 25 µg/cm2, 25 µg/cm2 (Ixodes ricinus): 57%
number of mosquitoes landing within 2 minutes on the warm body, air in the cage saturated with stimulus (Aedes aegypti [3]; [7]): 20.0
number of mosquitoes landing within 2 minutes on the warm body, air in the cage saturated with stimulus (Aedes aegypti [3]; [8]): 27.0
number of mosquitoes landing within 2 minutes on the warm body, air in the cage saturated with stimulus (Aedes aegypti [3]; [9]): 2.0
number of mosquitoes landing within 2 minutes on the warm body, air in the cage saturated with stimulus (Aedes aegypti [3]; [10]): 2.0
number of mosquitoes landing within 2 minutes on the warm body, air in the cage saturated with stimulus (Aedes aegypti [3]; [11]): 2.0

C/C=C/C(=O)C1C(C)=CCCC1(C)C (stereo not shown) [(E)-1-(2,6,6-trimethylcyclohex-2-en-1-yl)but-2-en-1-one]
number of mosquitoes landing within 2 minutes on the warm body (Aedes aegypti [1]; 0.04% in ethanol, ethanol control 67.1±9.1 landings): 34.0
number of mosquitoes landing within 2 minutes on the warm body (Aedes aegypti [1]; 1% in ethanol, ethanol control 67.1±9.1 landings): 9.0
number of mosquitoes landing within 2 minutes on the warm body (Aedes aegypti [1]; […] in ethanol, ethanol control 67.1±9.1 landings): 70.0
pest or weed control at 1 µg/cm2, 1 µg/cm2 (Ixodes ricinus): 13%
pest or weed control at 5 µg/cm2, 5 µg/cm2 (Ixodes ricinus): 6%
pest or weed control at 25 µg/cm2, 25 µg/cm2 (Ixodes ricinus): 83%
number of mosquitoes landing within 2 minutes on the warm body, air in the cage saturated with stimulus (Aedes aegypti [3]; 0.0017 µg/L air, without substance 56.0±3.6): 6.0
number of mosquitoes landing within 2 minutes on the warm body, air in the cage saturated with stimulus (Aedes aegypti [3]; 0.017 µg/L air, without substance 56.0±3.6): 11.0
number of mosquitoes landing within 2 minutes on the warm body, air in the cage saturated with stimulus (Aedes aegypti [3]; 0.17 µg/L air, without substance 56.0±3.6): 4.0
number of mosquitoes landing within 2 minutes on the warm body, air in the cage saturated with stimulus (Aedes aegypti [3]; 1.7 µg/L air, without substance 56.0±3.6): 4.0
number of mosquitoes landing within 2 minutes on the warm body, air in the cage saturated with stimulus (Aedes aegypti [3]; 17 µg/L air, without substance 56.0±3.6): 1.0
repulsion (Aedes aegypti [3]; at all five tested concentrations): more than 80%
landings in 2 minutes (Aedes aegypti [3]; dose of 0.17 µg/L of air): less than five

O=c1ccc2ccccc2o1 [chromen-2-one]
number of mosquitoes landing within 2 minutes on the warm body (Aedes aegypti [1]; [4]): 0.0
number of mosquitoes landing within 2 minutes on the warm body (Aedes aegypti [1]; [5]): 1.0
number of mosquitoes landing within 2 minutes on the warm body (Aedes aegypti [1]; [6]): 118.0
pest or weed control at 1 µg/cm2, 1 µg/cm2 (Ixodes ricinus): 27%
pest or weed control at 5 µg/cm2, 5 µg/cm2 (Ixodes ricinus): 71%
pest or weed control at 25 µg/cm2, 25 µg/cm2 (Ixodes ricinus): 80%
tick response compared with the benchmark IR3535 (Ixodes ricinus; concentrations tested): response similar to the benchmark IR3535
number of mosquitoes landing within 2 minutes on the warm body, air in the cage saturated with stimulus (Aedes aegypti [3]; [7]): 36.0
number of mosquitoes landing within 2 minutes on the warm body, air in the cage saturated with stimulus (Aedes aegypti [3]; [8]): 3.0
number of mosquitoes landing within 2 minutes on the warm body, air in the cage saturated with stimulus (Aedes aegypti [3]; [9]): 10.0
number of mosquitoes landing within 2 minutes on the warm body, air in the cage saturated with stimulus (Aedes aegypti [3]; [10]): 1.0
number of mosquitoes landing within 2 minutes on the warm body, air in the cage saturated with stimulus (Aedes aegypti [3]; [11]): 0.0
